We go through 17 compounds from article PMC11721942 (Journal of Enzyme Inhibition and Medicinal Chemistry, 2023).

In general, IC50 refers to the concentration that inhibits the measured activity by half. As usually defined, the EC50 is the concentration that produces a half-maximal response.

The target in one series is yeast α-glucosidase (Saccharomyces cerevisiae, UniProt P53341). It counts as biochemical.
The test system of series [1] is SARS-CoV-2. The settings on record: A549-ACE2 cells; cited from earlier work.
In the next series the target is α-glucosidase in rice. The settings on record: cited from earlier work.
Another series has as its target α-glucosidase (yeast). The settings on record: cited from earlier work.
A further series addresses T1, human α-galactosidase A (Homo sapiens, UniProt P06280).
T1 sequence (P06280 32-429): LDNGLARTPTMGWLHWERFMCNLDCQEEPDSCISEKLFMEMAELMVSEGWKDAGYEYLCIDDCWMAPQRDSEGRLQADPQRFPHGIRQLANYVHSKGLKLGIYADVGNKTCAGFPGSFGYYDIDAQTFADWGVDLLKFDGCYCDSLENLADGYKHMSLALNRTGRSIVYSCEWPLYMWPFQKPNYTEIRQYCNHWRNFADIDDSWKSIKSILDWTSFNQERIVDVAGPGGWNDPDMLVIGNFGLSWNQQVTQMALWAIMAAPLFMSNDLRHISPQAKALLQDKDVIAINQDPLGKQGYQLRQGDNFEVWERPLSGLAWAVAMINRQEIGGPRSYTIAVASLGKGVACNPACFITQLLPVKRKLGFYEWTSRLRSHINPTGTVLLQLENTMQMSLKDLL
The series is classed as biochemical.

Series [2] has as its target ER glucosidase II (rat liver). The settings on record: read-out: Inhibitory activity IC50; cited from earlier work.
For series [3], the system named is SARS-CoV-2. The conditions noted are these: Vero E6 cells; cited from earlier work.
The subject of series [4] is influenza haemagglutinin folding process in ER. The conditions noted are these: cited from earlier work.
The next series has as its system severe COVID-19. The conditions noted are these: severe COVID-19 patients; cited from earlier work.
For a further series, the system named is A549-ACE2 cells. Briefly: Cell toxicity assay. It counts as cell-based, human.

Structures can show the parent of a compound that is named as a salt. Where two headings read alike, the source gives them in different places. Where only a bound is given, the exact number is not on record here.

Sequence of yeast α-glucosidase (P53341 whole entry): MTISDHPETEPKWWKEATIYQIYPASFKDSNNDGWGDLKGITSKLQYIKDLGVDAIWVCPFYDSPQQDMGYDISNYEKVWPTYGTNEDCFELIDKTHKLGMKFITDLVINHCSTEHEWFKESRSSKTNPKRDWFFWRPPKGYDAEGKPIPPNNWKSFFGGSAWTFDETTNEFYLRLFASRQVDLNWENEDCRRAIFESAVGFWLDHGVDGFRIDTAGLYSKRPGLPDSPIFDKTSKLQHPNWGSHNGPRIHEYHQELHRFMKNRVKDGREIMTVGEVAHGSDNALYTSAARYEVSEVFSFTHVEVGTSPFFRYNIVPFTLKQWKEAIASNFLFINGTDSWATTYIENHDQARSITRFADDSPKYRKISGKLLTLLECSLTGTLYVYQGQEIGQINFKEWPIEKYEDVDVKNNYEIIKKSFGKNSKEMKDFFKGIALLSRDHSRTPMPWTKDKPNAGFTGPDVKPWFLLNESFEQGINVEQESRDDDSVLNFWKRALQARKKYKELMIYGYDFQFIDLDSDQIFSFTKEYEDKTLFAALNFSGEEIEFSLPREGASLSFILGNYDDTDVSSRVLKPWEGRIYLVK

On yeast α-glucosidase, `OC[C@@H]1[C@@H](O)[C@H](O)[C@@H](O)CN1CCCCCC12CC(C1)C2` [Compound 22, (2 R,3R,4R,5S)-1–(5-(Bicyclo[1.1.1]pentan-1-yl)pentyl)-3,4,5-trihydroxy-2-(hydroxymethyl)piperidin-1-ium chloride] gave an IC50 of 218 µM.
For `COCCCCCCCCCN1C[C@H](O)[C@@H](O)[C@H](O)[C@H]1CO` [UV-4], in the series with SARS-CoV-2 [1], the EC50 was 4 µM.
In the case of `OCCN1C[C@H](O)[C@@H](O)[C@H](O)[C@H]1CO` [Compound 8, miglitol], the IC50 against yeast α-glucosidase is over 500 µM; on α-glucosidase in rice, 0.05 µM; on α-glucosidase (yeast), over 1000 µM; on α-glucosidase (yeast) (read-out: Inhibitory activity IC50, ref 37), 9880 µM; on α-glucosidase (yeast) (read-out: Inhibitory activity IC50, ref 46) it was 41.3 µM.
The compound `OC[C@H]1NNC[C@@H](O)[C@H]1O` [Compound 40, (3 R,4S,5R)-3-(hydroxymethyl)hexahydropyridazine-4,5-diol hydrochloride] came in with an IC50 against human α-galactosidase A of over 100 µM.
Take `CCCCN1C[C@H](O)[C@@H](O)[C@H](O)[C@H]1CO` [Compound 1, N-butyldeoxynojirimycin]: the results for the IC50 (in [2]; against yeast α-glucosidase) were 13 µM and over 500 µM, respectively. For the same compound, the concentration for a half-maximal effect (EC50) in the series on SARS-CoV-2 [3] was 41 ± 22 µM. For the same compound, the “Inhibitory activity, % at 1 mM” value in the series on α-glucosidase (yeast) (1 mM) is given as 12.7%.
For the compound `CN1NC[C@@H](O)[C@@H](O)[C@H]1CO` [Compound 104, (4R,5S,6R)-6-(hydroxymethyl)-1-methylhexahydropyridazine-4,5-diol hydrochloride], on human α-galactosidase A, the IC50 was over 100 µM.
Turning to `OC[C@@H]1[C@@H](O)[C@H](O)[C@@H](O)CN1CCCCCOCC12CC3CC(CC(C3)C1)C2` [Compound 77, (2 R,3R,4R,5S)-1–(5-(adamantan-1-ylmethoxy)pentyl)-2-(hydroxymethyl)piperidine-3,4,5-triol], in [4], the “concentration at which inhibition occurred” value is listed as 200 µM. This compound came in with an IC50 against yeast α-glucosidase of 67 µM.
`OC[C@H]1NC[C@H](O)[C@@H](O)[C@@H]1O` [Compound 2, deoxynojirimycin]: the IC50 in series [2] is 16 µM.
The compound `CN1C[C@H](O)[C@@H](O)[C@@H](O)[C@H]1CO` [Compound 87, (2R,3S,4R,5S)-2-(hydroxymethyl)-1-methylpiperidine-3,4,5-triol] came in with an IC50 at human α-galactosidase A of 5.1 µM.
With `CCCCCCCCCN1CC[C@@H](O)[C@@H](O)[C@H]1CO` [Compound 94, (2R,3S,4R)-2-(hydroxymethyl)-1-nonylpiperidine-3,4-diol], the IC50 against human α-galactosidase A is over 100 µM.
As to `C[C@@H]1C[C@H]2[C@@H]3CCC4=CC(=O)C=C[C@]4(C)[C@@]3(F)[C@@H](O)C[C@]2(C)[C@@]1(O)C(=O)CO` [dexamethasone], in the series on severe COVID-19, the reduction of mortality is reported as 30%.
Consider `CCCCCCCCCN1C[C@H](O)[C@@H](O)[C@H](O)[C@H]1CO` [Compound 76, (2R,3R,4R,5S)-2-(hydroxymethyl)-1-nonylpiperidine-3,4,5-triol], for which the IC50 at yeast α-glucosidase was found to be 70 µM.
On yeast α-glucosidase, `CN1C[C@H](O)[C@@H](O)[C@H](O)[C@H]1CO` [Compound 75, (2R,3R,4R,5S)-2-(hydroxymethyl)-1-methylpiperidine-3,4,5-triol] returned a half-inhibitory concentration (IC50) of 572 µM.
With `O[C@H]1[C@H]2[C@H](O)CCCN2C[C@H]1O` [Compound 3, swainsonine], in the series on A549-ACE2 cells, the “cytotoxicity at EC90 concentrations” value is “cytotoxicity at EC90 concentrations”.
As for `CCCC(=O)O[C@H]1CN2CC[C@H](O)[C@@H]2[C@@H](O)[C@@H]1O` [celgosivir], the EC50 in the series with SARS-CoV-2 [3] was 1 ± 0.2 µM.
On to `CC/C(=C(\c1ccccc1)c1ccc(OCCN(C)C)cc1)c1ccccc1` [Compound 72, tamoxifen], for which, in the series with A549-ACE2 cells, the “cytotoxicity, concentration relative to antiviral EC90” value was 100 fold.
Turning to `CCCCCCCCCN1C[C@H](O)[C@@H](O)[C@@H](O)[C@H]1CO` [Compound 89, (2R,3S,4R,5S)-2-(hydroxymethyl)-1-nonylpiperidine-3,4,5-triol], the half-inhibitory concentration (IC50) against human α-galactosidase A was over 100 µM.
